Measurements as given in ChEMBL document CHEMBL1201862, “PubChem BioAssay data set” (2004).
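Cultured in 96-well plates, cells were exposed to test compound for 48 hours across five concentrations. GI50 is the concentration that inhibits growth by half.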 Activity calls are given as the source filed them. No stated cut-off is given here; in the data, active = GI50 up to about 1.1 µM and inactive = higher.

How the values were obtained:
Test in all cases: NCI anticancer screen, dose series, 48 h
A549 = tested on: A549
BT-549 = tested on: BT-549
CCRF-CEM = tested on: CCRF-CEM
DU-145 = tested on: DU-145
HL-60 = tested on: HL-60
HOP-92 = tested on: HOP-92
KM12 = tested on: KM12
MCF7 = tested on: MCF7
MDA-MB-231 = tested on: MDA-MB-231
MDA-MB-435 = tested on: MDA-MB-435
OVCAR-4 = tested on: OVCAR-4
PC-3 = tested on: PC-3
RPMI-8226 = tested on: RPMI-8226
SF-268 = tested on: SF-268
SF-295 = tested on: SF-295
SK-MEL-28 = tested on: SK-MEL-28
SK-MEL-2 = tested on: SK-MEL-2
TK-10 = tested on: TK-10
U-251 = tested on: U-251
UACC-62 = tested on: UACC-62

Measured: GI50

COc1cccc(-n2nnc3c(N)nc(N)nc32)c1
inactive: A549 > 100 µM | BT-549 > 100 µM | CCRF-CEM > 100 µM | DU-145 > 100 µM | HL-60 > 100 µM | HOP-92 > 100 µM | KM12 > 100 µM | MCF7 > 100 µM | MDA-MB-231 > 100 µM | MDA-MB-435 > 100 µM | OVCAR-4 > 100 µM | PC-3 > 100 µM | RPMI-8226 > 100 µM | SF-268 5.96 µM | SF-295 > 100 µM | SK-MEL-28 > 100 µM | SK-MEL-2 > 100 µM | TK-10 > 100 µM | U-251 > 100 µM | UACC-62 33.3 µM

O=C(c1cccc(OCc2ccccc2)c1OCc1ccccc1)N1CCSC1=S
inactive: A549 23.7 µM | BT-549 29.5 µM | CCRF-CEM 5.05 µM | DU-145 28.1 µM | HL-60 5.92 µM | HOP-92 18.1 µM | KM12 5.13 µM | MCF7 23 µM | MDA-MB-231 19.8 µM | MDA-MB-435 27.2 µM | OVCAR-4 56.5 µM | PC-3 21 µM | RPMI-8226 8.38 µM | SF-268 11.9 µM | SF-295 30 µM | SK-MEL-28 48.5 µM | SK-MEL-2 34.6 µM | TK-10 56.5 µM | U-251 29.1 µM | UACC-62 19.2 µM
